Data from the NIST ThermoML archive (doi:10.1021/acs.jced.8b00589).

Experiment: xn = mol fraction of the nth substance listed
Details: for surface tension liquid-gas: Ring tensiometer; for viscosity / speed of sound / mass density: 100 kPa, Liquid; for viscosity: Capillary tube (Ostwald / Ubbelohde) method; for speed of sound: Frequency=2 MHz, Linear variable-path acoustic interferometer; for mass density: Vibrating tube method

CCC(C)(C)OC [2-methoxy-2-methylbutane] + Cc1cccc(C)c1
Details | mass density [kg/m3] | speed of sound [m/s] | surface tension liquid-gas [mN/m] | viscosity [mPa·s]
298.15 K, x1 = 0.1462 | 844.1 | 1299 | 26.87 | 0.561
298.15 K, x1 = 0.2667 | 833.4 | 1269.4 | 25.84 | 0.541
298.15 K, x1 = 0.4165 | 821.1 | 1235 | 24.69 | 0.519
298.15 K, x1 = 0.4774 | 816.2 | 1218.9 | 24.24 | 0.51
298.15 K, x1 = 0.5331 | 811.4 | 1205.2 | 23.82 | 0.502
298.15 K, x1 = 0.6068 | 805.3 | 1189.2 | 23.22 | 0.491
298.15 K, x1 = 0.7371 | 794.6 | 1165.8 | 22.07 | 0.47
298.15 K, x1 = 0.8642 | 782.7 | 1138 | 20.93 | 0.447
298.15 K, x1 = 1 | 765.6 | 1118 | 19.72 | 0.424
308.15 K, x1 = 0.1462 | 833.6 | 1254.4 | 25.64 | 0.501
308.15 K, x1 = 0.2667 | 822.5 | 1220.7 | 24.62 | 0.485
308.15 K, x1 = 0.4165 | 810.2 | 1182.3 | 23.47 | 0.468
308.15 K, x1 = 0.4774 | 805.1 | 1167 | 23.02 | 0.461
308.15 K, x1 = 0.5331 | 800.3 | 1155.1 | 22.61 | 0.454
308.15 K, x1 = 0.6068 | 794.4 | 1140.5 | 22.06 | 0.445
308.15 K, x1 = 0.7371 | 783.3 | 1118.1 | 20.94 | 0.428
308.15 K, x1 = 0.8642 | 771.8 | 1092.8 | 19.83 | 0.409
308.15 K, x1 = 1 | 756.3 | 1075.6 | 18.66 | 0.39
318.15 K, x1 = 0.1462 | 823.8 | 1209.3 | 24.36 | 0.46
318.15 K, x1 = 0.2667 | 813.1 | 1174.2 | 23.37 | 0.445
318.15 K, x1 = 0.4165 | 800.2 | 1134.5 | 22.25 | 0.428
318.15 K, x1 = 0.4774 | 794.8 | 1118.7 | 21.81 | 0.421
318.15 K, x1 = 0.5331 | 790.4 | 1105.4 | 21.41 | 0.415
318.15 K, x1 = 0.6068 | 784.1 | 1090.6 | 20.9 | 0.407
318.15 K, x1 = 0.7371 | 772.8 | 1067.2 | 19.83 | 0.391
318.15 K, x1 = 0.8642 | 761.3 | 1045.9 | 18.77 | 0.374
318.15 K, x1 = 1 | 746.3 | 1030.2 | 17.65 | 0.357
323.15 K, x1 = 0.1462 | 819.2 | 1186.3 | 23.73 | 0.424
323.15 K, x1 = 0.2667 | 808 | 1150.5 | 22.75 | 0.412
323.15 K, x1 = 0.4165 | 795.3 | 1107.7 | 21.65 | 0.399
323.15 K, x1 = 0.4774 | 789.8 | 1090.3 | 21.21 | 0.393
323.15 K, x1 = 0.5331 | 785.1 | 1076.2 | 20.82 | 0.389
323.15 K, x1 = 0.6068 | 778.8 | 1061.4 | 20.32 | 0.382
323.15 K, x1 = 0.7371 | 767.7 | 1037.8 | 19.27 | 0.369
323.15 K, x1 = 0.8642 | 755.8 | 1017 | 18.23 | 0.354
323.15 K, x1 = 1 | 741.4 | 1003 | 17.13 | 0.34
328.15 K, x1 = 0.1462 | 814.4 | 1160.6 | 23.1 | 0.414
328.15 K, x1 = 0.2667 | 803.3 | 1124 | 22.14 | 0.401
328.15 K, x1 = 0.4165 | 790.5 | 1082.2 | 21.05 | 0.387
328.15 K, x1 = 0.4774 | 785.2 | 1065.1 | 20.62 | 0.382
328.15 K, x1 = 0.5331 | 780.3 | 1051.8 | 20.23 | 0.377
328.15 K, x1 = 0.6068 | 773.7 | 1037.4 | 19.73 | 0.37
328.15 K, x1 = 0.7371 | 762.6 | 1013.9 | 18.71 | 0.357
328.15 K, x1 = 0.8642 | 750.8 | 995.44 | 17.69 | 0.342
328.15 K, x1 = 1 | 736.5 | 985.2 | 16.62 | 0.328
